Assay results: US8663914B2, “System and method for controlling bacterial cells with weak electric currents” (Syracuse University, priority 2009, dated 2014)
In brackets after ≈: the same amount, converted by molar mass. Like-named read-outs stand apart in the source and are kept apart here.

Legend:
[1] = system: E. coli HM22 persister cells; assay: ROS accumulation (H2DCFDA fluorescence) and CFU count of E. coli HM22 persister cells treated with current and/or H2O2; format: cell-based
Method: Thus, the treatment could render the persister cells more susceptible to external ROS. To test this hypothesis, we treated E. coli HM22 persister cells with 100 μA for 20 min and followed by treatment with and without H2O2 (500 μM) for 1 h. These cells were then split into two parts: one for microscopic analysis and the other for CFU count. For microscopic study, cells were treated with 200 μM dichlorodihydrofluorescein diacetate (H2DCFDA, Sigma-Aldrich, St. Louis, Mo.) for 30 min in dark at room temperature. After incubation, cells were spin down and resuspended in PBS buffer for visualization using a fluorescence microscope (Axio Imager M1, ZEISS, Jena, Germany). The dye H2DCFDA can penetrate bacterial cells and get cleaved by cellular esterase to produce H2DCF. If there is any ROS present, this H2DCF will be converted to DCF and give fluorescence (Invitrogen, USA). […] For the CFU count, cells were plated on LB plates supplemented with DPA and incubated overnight at 37° C.

[2] = system: planktonic B. subtilis BE1500; assay: Minimum inhibitory concentration of ampicillin on planktonic cells (OD600, 96-well plate); format: cell-based; conditions: Bacillus subtilis; LB medium, 24 hours, 37° C.
Method: Determination of Minimum Inhibitory Concentration and Minimum Bactericidal Concentrations. To determine the minimum inhibitory concentrations (MICs) of ampicillin on planktonic cells, B. subtilis 168 and B. subtilis BE1500 were cultured in LB medium overnight as described above. The overnight cultures were subcultured by a 1:1000 dilution in LB medium containing various concentrations of ampicillin with seven replicates in a 96-well plate and allowed to grow at 37° C. with shaking at 200 rpm for 24 hours. The OD600 was measured immediately after inoculations and at 24 hours after inoculation with a microplate reader (Model EL808, BioTek Instruments, Winooski, Vt.).

[3] = system: B. subtilis BE1500 biofilms; assay: Treatment of B. subtilis BE1500 biofilms with ampicillin and/or DC (CFU count); format: cell-based
Method: MIC is not a useful measurement of the response of biofilms to antibiotics because antibiotics added in the growth medium before inoculation could kill planktonic cells before they can form a biofilm. Therefore it is important to characterize the minimum bactericidal concentration (MBC) of ampicillin on established biofilms. B. subtilis BE1500 was cultured overnight as described above. Flat stainless steel electrodes were placed in a 100 mm petri dish with 20 mL LB medium, which was inoculated with 20 μL of an overnight culture. Biofilms were allowed to develop for 48 hours at 37° C. without shaking. The electrodes with biofilms were gently washed three times in 0.85% NaCl buffer and immersed in LB medium containing various concentrations of ampicillin for 15 min. Immediately after treatment, the electrodes with biofilms were placed in a 15 mL polystyrene test tube (Fisher Scientific) containing 4 mL 0.85% NaCl buffer and sonicated for 2 min to remove the biofilm cells from the surface. The stainless steel electrode was then removed and the tube was vortexed for 30 s to break up any remaining cell clusters. CFUs were counted after spreading the buffer with cells on LB agar plates and incubated overnight at 37° C.
Treatment of Biofilm Cultures with Ampicillin and DC. B. subtilis BE1500 biofilms were prepared as described for MBC experiments. Prior to treatment, biofilms were gently washed three times with 0.85% NaCl buffer. Each stainless steel coupon with biofilm was placed as the working electrode in the electrochemical cell cuvette shown in FIG. 16. Prior to placing the electrode with biofilm in the cuvette, 3 mL LB medium was added to the cuvette to prevent the biofilm from drying out. Samples were treated for 15 min with 0, 25, 83 and 250 μA/cm^2. Immediately after treatment, the biofilms were placed in a 15 mL polystyrene test tube containing 4 mL 0.85% NaCl buffer and sonicated for 2 min to remove the biofilm from electrode. The stainless steel electrode was then removed and the tube containing the cells and buffer was vortexed for 30 s to break up any remaining cell clusters. Cell densities were determined by plating the cultures on LB/agar plates and counting CFUs. The effect of current-generated ions was tested in the same way except that the cells were incubated in pre-treated LB in the absence of a current.

[4] = system: B. subtilis 168; conditions: reported in the literature; cited from earlier work
[5] = system: E. coli HM22 persister cells; format: cell-based; conditions: 0.85% NaCl buffer
Method: To evaluate the effects of electric currents, the persister cells were first isolated as described previously. Briefly, the exponential culture of HM22 at optical density at 600 nm (OD600) of 0.3 in LB medium was treated with 100 μg/mL ampicillin for 3 h to kill and lyse the normal cells. The persister cells were then collected by centrifugation at 8000 rpm at 4° C. for 10 min and resuspended in 0.85% NaCl buffer. Electrodes with a dimension of 1 cm×5.6 cm were cut from a flat 304L stainless steel sheet (MSC; Melville, N.Y.) or graphite sheet (McMaster-CARR, Santa Fe Springs, Calif.). The same material was used for both the counter electrode and working electrode, which were placed into a 4.5 mL standard-style polystyrene cuvette (Fisher Scientific; Hampton, N.H.). A 0.48 mm diameter silver wire (A-M Systems; Sequim, Wash.) was placed in bleach for 30 min to produce an Ag/AgCl reference electrode. The bottom 1″ of a borosilicate glass Pasteur pipette (Fisher) was cut and the reference wire was placed inside to prevent contact with the working or counter electrode. An AFCBP1 potentiostat/galvanostat (Pine Instrument Company, Grove City, Pa.) was connected via alligator clamps to the electrodes and used to control the current. The volume of medium in the fully-constructed electrochemical cell was 3 mL (see FIG. 2).

[6] = system: P. aeruginosa PAO1; conditions: ciprofloxacin up to 200 μg/mL, 3.5 h, overnight culture
[7] = system: E. coli HM22 biofilms; assay: Killing of E. coli HM22 biofilm cells on 304L stainless steel coupons by tobramycin and/or direct current (CFU count); format: cell-based
Method: To determine if electric currents are also effective in killing persister cells in biofilms, E. coli HM22 biofilms were cultured on 304L stainless steel coupons. The biofilm-coated coupons were then used as anodic or cathodic electrode, and treated with direct current alone or with tobramycin together. Immediately after treatment, the cells were removed from the biofilm-coated coupons by sonication and vertexing. A portion of the cells was directly plated on LB+DPA plates to quantify the total number of viable cells by counting CFU, the other part of the sample was treated with 100 μg/mL ampicillin for another 3 h and plated on LB+DPA plates to quantify the number of the viable persister cells. This approach allowed us to study the killing effects on normal and persister cells separately.
However, treatments with 75 μA/cm^2 alone for 60 min reduced the number of viable persister cells by 3.5 logs. After treating biofilms with currents and tobramycin together for 60 min, the number of viable persister cells was reduced by 5.4 log (nearly complete killing, FIG. 4). Thus, synergy between electric currents and antibiotics also exist for killing persister cells in biofilms.

[8] = system: P. aeruginosa PAO1 cells; assay: Killing of P. aeruginosa PAO1 cells at exponential phase by tobramycin and/or electric current (CFU count); format: cell-based
Method: Continued experiments, for example, have already shown that the effects of electric current and synergy with antibiotics is not species specific, as similar results were shown using P. aeruginosa. The experiments were conducted in the same way as described for E. coli HM22. Briefly, an overnight culture of P. aeruginosa PAO1 was used to inoculate LB medium to an OD600 of ˜0.005 (1:1000 dilution of an overnight culture with LB) and incubated till OD600 reached ˜0.7. Then the cells were washed twice with 0.85% NaCl buffer and treated in the same way as described for planktonic E. coli cells. […] Treatment with 75 μA/cm^2 for 60 min reduced the number of viable P. aeruginosa PAO1 cells by 3 logs.

[9] = system: P. aeruginosa PAO1 persister cells; assay: Killing of P. aeruginosa PAO1 persister cells by tobramycin with electric current or pretreated buffer (CFU count); format: cell-based
Method: Thus, the 1% cells that survived the treatment were persister cells and treatment with 200 μg/mL Cip was used in the following experiments to harvest persister cells and ensure the complete killing of normal cells.
However, treatment with 75 μA/cm^2 (500 μA total) current reduced the number of viable persisters by ˜2.5 logs and another 2 logs of killing was obtained when treating with Tob together, as shown in FIG. 12. […] This is a significant advantage compared to traditional antibiotics, which commonly fail to kill bacterial cells that are in stationary phase or are persisters.
To understand if the killing by electric currents was due to the ions generated by electrochemical reactions, P. aeruginosa PAO1 persister cells were also treated with pretreated buffer, which was prepared by treating 0.85% NaCl buffer with SS304 stainless steel electrodes for the same current level and duration as used for the above experiments. The pretreated buffers were collected after 20, 40 or 60 min of treatment. P. aeruginosa PAO1 persister cells were collected as described above and resuspended in the pretreated buffers in the presence and absence of Tob. The cells were then incubated at room temperature without shaking for up to 1 h and samples were collected every 20 min to count CFU. […] The generation of ROS as described in E. coli HM22 data could be partially responsible for the killing. In addition, no synergy was observed between pretreated buffer and 1.5 μg/mL Tob.

[10] = tobramycin alone, 20 μg/mL or 150 μg/mL, compared to untreated control

OO [H2O2]
accumulation of ROS in persister cells ([1]; H2O2 500 μM, 1 h, H2DCFDA fluorescence): caused accumulation of ROS
killing of persister cells (CFU) ([1]; electric current (100 μA, 20 min) followed by H2O2 500 μM for 1 h, versus either alone): killed more persister cells than either the EC or H2O2 alone

CC1(C)S[C@@H]2[C@H](NC(=O)[C@H](N)c3ccccc3)C(=O)N2[C@H]1C(=O)O [ampicillin]
MIC [2]: ≤ 2 µg/mL
change in killing on adding ampicillin to current ([3]; 50 μg/mL ampicillin and 500 μA current, graphite electrodes, chlorine-free M56 buffer, versus current alone): slight decrease in killing
biofilm cells killed ([3]; 1000 μg/mL ampicillin alone for 15 min): 59%
synergy of DC and ampicillin on biofilms ([3]; 83 μA/cm^2 DC and ampicillin together, stainless steel electrodes): no apparent synergy
inhibition at 50 µg/mL ([3]; Bacillus subtilis, BE1500BIOFILMS, 0.25 h, 50 μg/mL ampicillin with 500 μA DC current, 15 min, graphite electrodes, read-out: decrease in cell viability): 44%
inhibition at 100 µg/mL ([3]; Bacillus subtilis, BE1500BIOFILMS, 0.25 h, 100 μg/mL ampicillin with 83 μA/cm^2 DC, 15 min, 37° C., stainless steel electrodes, versus antibiotic alone, read-out: decrease in cell viability): 79%
inhibition at 1000 µg/mL ([3]; Bacillus subtilis, BE1500BIOFILMS, 0.25 h, 1000 μg/mL ampicillin with 83 μA/cm^2 DC, 15 min, 37° C., stainless steel electrodes, versus antibiotic alone, read-out: decrease in cell viability): 86%
inhibition at 50 µg/mL ([3]; Bacillus subtilis, BE1500BIOFILMS, 0.25 h, read-out: decrease in cell viability, 50 μg/mL ampicillin with 83 μA/cm^2 (500 μA) DC, 15 min, 37° C., stainless steel electrodes, LB, versus antibiotic alone): 93%
viability at 50 µg/mL ([3]; Bacillus subtilis, BE1500BIOFILMS, 50 μg/mL ampicillin with 500 μA DC current, graphite electrodes, chlorine-free M56 buffer, read-out: viability of biofilm cells (untreated control normalized as 100%)): 74%
MIC [4]: 0.2 µg/mL (≈ 0.572 µM)

CCn1nc(C(=O)O)c(=O)c2cc3c(cc21)OCO3 [cinoxacin]
reduction in the number of viable persister cells ([5]; 20 μg/mL cinoxacin alone, graphite electrodes cell, 60 min): no apparent reduction
reduction in the number of viable persister cells ([5]; 20 μg/mL cinoxacin together with 75 μA/cm^2 current, graphite electrodes): more than 5 log

O=C(O)c1cn(C2CC2)c2cc(N3CCNCC3)c(F)cc2c1=O [ciprofloxacin]
cells that survived the treatment [6]: 1%

NC[C@H]1O[C@H](O[C@H]2[C@H](O)[C@@H](O[C@H]3O[C@H](CO)[C@@H](O)[C@H](N)[C@H]3O)[C@H](N)C[C@@H]2N)[C@H](N)C[C@@H]1O [tobramycin]
synergy with electric current in killing persister cells ([5]; tobramycin with 75 μA/cm^2 DC, graphite electrodes): synergistic effect
reduction of number of viable persister cells in biofilm ([7]; currents (75 μA/cm^2 DC) and tobramycin (20 μg/mL) together for 60 min): 5.4 log
reduction in number of viable persister cells in biofilm [7, 10]: no significant reduction
reduction in total number of viable cells in biofilm [7, 10]: no significant reduction
killing of viable cells ([8]; 1.5 μg/mL Tob alone, 0.85% NaCl buffer): did not cause any significant killing
killing of viable cells ([8]; 1.5 μg/mL Tob combined with 75 μA/cm^2 for 60 min): up to 5 logs
killing of persister cells ([9]; 1.5 μg/mL Tob alone): not able to kill
synergy between pretreated buffer and Tob ([9]; 1.5 μg/mL Tob in 0.85% NaCl buffer pretreated with SS304 electrodes, no current, up to 1 h): no synergy
additional killing of persister cells beyond current alone ([9]; 1.5 μg/mL Tob together with 75 μA/cm^2 (500 μA total) current): 2 logs
